The data set in a line: activity coefficient (dimensionless); of the first substance listed, at infinite dilution; xn = mol fraction of the nth substance listed. The note with it: 101.33 kPa, Liquid, Chromatography, x1 = 0.

± gives the expanded uncertainty stated by the source.

As to `CCCOCCC` [dipropyl ether] + CCCCCCCCCCCCn1cc[n+](C)c1.O=S(=O)([N-]S(=O)(=O)C(F)(F)F)C(F)(F)F, the activity coefficient was found to be 1.67 ± 0.11 (318.15 K); 1.73 ± 0.12 (328.15 K); 1.79 ± 0.12 (338.15 K); 1.84 ± 0.12 (348.15 K); 1.89 ± 0.13 (358.15 K); 1.94 ± 0.13 (368.15 K).

`CCC(C)O` (configuration not stated) [butan-2-ol] + CCCCCCCCCCCCn1cc[n+](C)c1.O=S(=O)([N-]S(=O)(=O)C(F)(F)F)C(F)(F)F: the activity coefficient (318.15 K) was 1.29 ± 0.08; the activity coefficient (328.15 K) was 1.23 ± 0.08; the activity coefficient (338.15 K) was 1.18 ± 0.08; the activity coefficient (348.15 K) was determined as 1.13 ± 0.07; the activity coefficient (358.15 K) is 1.09 ± 0.07; the activity coefficient (368.15 K) worked out at 1.05 ± 0.07.

Regarding `CCC(C)(C)C` [2,2-dimethylbutane] + CCCCCCCCCCCCn1cc[n+](C)c1.O=S(=O)([N-]S(=O)(=O)C(F)(F)F)C(F)(F)F, the activity coefficient reads like this: (318.15 K) 2.83 ± 0.19; (328.15 K) 2.89 ± 0.2; (338.15 K) 2.95 ± 0.2; (348.15 K) 3 ± 0.2; (358.15 K) 3.05 ± 0.21; (368.15 K) 3.1 ± 0.21.

As to `CCOC(C)=O` [ethyl acetate] + CCCCCCCCCCCCn1cc[n+](C)c1.O=S(=O)([N-]S(=O)(=O)C(F)(F)F)C(F)(F)F, the activity coefficient (318.15 K) worked out at 0.541 ± 0.04; the activity coefficient (328.15 K) came out at 0.567 ± 0.041; the activity coefficient (338.15 K) was determined as 0.593 ± 0.042; the activity coefficient (348.15 K) came to 0.619 ± 0.043; the activity coefficient (358.15 K) amounted to 0.645 ± 0.044; the activity coefficient (368.15 K) came to 0.67 ± 0.045.

With `O` [water] + CCCCCCCCCCCCn1cc[n+](C)c1.O=S(=O)([N-]S(=O)(=O)C(F)(F)F)C(F)(F)F, the activity coefficient was 4.49 ± 0.31 (318.15 K); 4.02 ± 0.27 (328.15 K); 3.64 ± 0.25 (338.15 K); 3.31 ± 0.23 (348.15 K); 3.03 ± 0.21 (358.15 K); 2.78 ± 0.19 (368.15 K).

Regarding `C=C(C)c1ccccc1` [(1-methylethenyl)benzene] + CCCCCCCCCCCCn1cc[n+](C)c1.O=S(=O)([N-]S(=O)(=O)C(F)(F)F)C(F)(F)F, the activity coefficient (318.15 K) is 0.79 ± 0.05; the activity coefficient (328.15 K) came out at 0.842 ± 0.054; the activity coefficient (338.15 K) came to 0.896 ± 0.057; the activity coefficient (348.15 K) turned out to be 0.949 ± 0.06; the activity coefficient (358.15 K) is 1 ± 0.06; the activity coefficient (368.15 K) was 1.05 ± 0.07.

In the case of `CCCC(=O)OC` [methyl butanoate] + CCCCCCCCCCCCn1cc[n+](C)c1.O=S(=O)([N-]S(=O)(=O)C(F)(F)F)C(F)(F)F, the activity coefficient is, setting by setting: (318.15 K) 0.613 ± 0.043; (328.15 K) 0.643 ± 0.044; (338.15 K) 0.674 ± 0.046; (348.15 K) 0.704 ± 0.047; (358.15 K) 0.733 ± 0.049; (368.15 K) 0.762 ± 0.05.

For `Cc1ccccc1C` [1,2-dimethylbenzene] + CCCCCCCCCCCCn1cc[n+](C)c1.O=S(=O)([N-]S(=O)(=O)C(F)(F)F)C(F)(F)F, the activity coefficient reads like this: (318.15 K) 0.812 ± 0.053; (328.15 K) 0.851 ± 0.055; (338.15 K) 0.892 ± 0.057; (348.15 K) 0.93 ± 0.06; (358.15 K) 0.968 ± 0.061; (368.15 K) 1.01 ± 0.06.

As for `C=CCCCCC` [1-heptene] + CCCCCCCCCCCCn1cc[n+](C)c1.O=S(=O)([N-]S(=O)(=O)C(F)(F)F)C(F)(F)F, the activity coefficient worked out at 2.56 ± 0.17 (318.15 K); 2.62 ± 0.18 (328.15 K); 2.68 ± 0.18 (338.15 K); 2.74 ± 0.19 (348.15 K); 2.8 ± 0.19 (358.15 K); 2.85 ± 0.19 (368.15 K).

On to `CCOC(C)(C)C` [2-ethoxy-2-methylpropane] + CCCCCCCCCCCCn1cc[n+](C)c1.O=S(=O)([N-]S(=O)(=O)C(F)(F)F)C(F)(F)F, for which the activity coefficient reads like this: (318.15 K) 1.55 ± 0.1; (328.15 K) 1.62 ± 0.11; (338.15 K) 1.69 ± 0.11; (348.15 K) 1.75 ± 0.12; (358.15 K) 1.82 ± 0.12; (368.15 K) 1.88 ± 0.13.

For `COC(C)=O` [methyl ethanoate] + CCCCCCCCCCCCn1cc[n+](C)c1.O=S(=O)([N-]S(=O)(=O)C(F)(F)F)C(F)(F)F, the activity coefficient was determined as 0.503 ± 0.038 (318.15 K); 0.525 ± 0.039 (328.15 K); 0.546 ± 0.04 (338.15 K); 0.566 ± 0.041 (348.15 K); 0.586 ± 0.042 (358.15 K); 0.606 ± 0.042 (368.15 K).

For the molecule `CCC(=O)CC` [pentan-3-one] + CCCCCCCCCCCCn1cc[n+](C)c1.O=S(=O)([N-]S(=O)(=O)C(F)(F)F)C(F)(F)F, the activity coefficient amounted to 0.418 ± 0.035 (318.15 K); 0.444 ± 0.036 (328.15 K); 0.47 ± 0.037 (338.15 K); 0.496 ± 0.038 (348.15 K); 0.521 ± 0.039 (358.15 K); 0.546 ± 0.04 (368.15 K).

On to `c1ccsc1` [thiophene] + CCCCCCCCCCCCn1cc[n+](C)c1.O=S(=O)([N-]S(=O)(=O)C(F)(F)F)C(F)(F)F, for which the activity coefficient is, setting by setting: (318.15 K) 0.559 ± 0.04; (328.15 K) 0.579 ± 0.041; (338.15 K) 0.6 ± 0.042; (348.15 K) 0.62 ± 0.043; (358.15 K) 0.639 ± 0.044; (368.15 K) 0.658 ± 0.045.

Consider `C1CCOC1` [tetrahydrofuran] + CCCCCCCCCCCCn1cc[n+](C)c1.O=S(=O)([N-]S(=O)(=O)C(F)(F)F)C(F)(F)F, for which the activity coefficient runs as follows: (318.15 K) 0.394 ± 0.034; (328.15 K) 0.417 ± 0.035; (338.15 K) 0.44 ± 0.04; (348.15 K) 0.462 ± 0.036; (358.15 K) 0.484 ± 0.037; (368.15 K) 0.508 ± 0.038.

Consider `CC(C)(C)O` [2-methylpropan-2-ol] + CCCCCCCCCCCCn1cc[n+](C)c1.O=S(=O)([N-]S(=O)(=O)C(F)(F)F)C(F)(F)F, for which the activity coefficient reads like this: (318.15 K) 1.12 ± 0.07; (328.15 K) 1.08 ± 0.07; (338.15 K) 1.04 ± 0.07; (348.15 K) 0.998 ± 0.062; (358.15 K) 0.964 ± 0.061; (368.15 K) 0.933 ± 0.059.

Turning to `C=CCCCCCC` [oct-1-ene] + CCCCCCCCCCCCn1cc[n+](C)c1.O=S(=O)([N-]S(=O)(=O)C(F)(F)F)C(F)(F)F, the activity coefficient by setting is: (318.15 K) 3.03 ± 0.21; (328.15 K) 3.1 ± 0.21; (338.15 K) 3.17 ± 0.22; (348.15 K) 3.23 ± 0.22; (358.15 K) 3.29 ± 0.22; (368.15 K) 3.35 ± 0.23.

Take `C=Cc1ccccc1` [styrene] + CCCCCCCCCCCCn1cc[n+](C)c1.O=S(=O)([N-]S(=O)(=O)C(F)(F)F)C(F)(F)F: the activity coefficient reads like this: (318.15 K) 0.632 ± 0.044; (328.15 K) 0.666 ± 0.045; (338.15 K) 0.702 ± 0.047; (348.15 K) 0.736 ± 0.049; (358.15 K) 0.771 ± 0.05; (368.15 K) 0.804 ± 0.052.

Turning to `CCCCC` [pentane] + CCCCCCCCCCCCn1cc[n+](C)c1.O=S(=O)([N-]S(=O)(=O)C(F)(F)F)C(F)(F)F, the activity coefficient was found to be 2.55 ± 0.17 (318.15 K); 2.6 ± 0.18 (328.15 K); 2.66 ± 0.18 (338.15 K); 2.71 ± 0.18 (348.15 K); 2.76 ± 0.19 (358.15 K); 2.81 ± 0.19 (368.15 K).

On to `CCCCCCCCC` [nonane] + CCCCCCCCCCCCn1cc[n+](C)c1.O=S(=O)([N-]S(=O)(=O)C(F)(F)F)C(F)(F)F, for which the activity coefficient is, setting by setting: (318.15 K) 4.92 ± 0.34; (328.15 K) 4.97 ± 0.34; (338.15 K) 5.03 ± 0.34; (348.15 K) 5.08 ± 0.35; (358.15 K) 5.13 ± 0.35; (368.15 K) 5.17 ± 0.35.

For the molecule `CCCCCC` [hexane] + CCCCCCCCCCCCn1cc[n+](C)c1.O=S(=O)([N-]S(=O)(=O)C(F)(F)F)C(F)(F)F, the activity coefficient runs as follows: (318.15 K) 2.96 ± 0.2; (328.15 K) 3.02 ± 0.21; (338.15 K) 3.09 ± 0.21; (348.15 K) 3.14 ± 0.21; (358.15 K) 3.2 ± 0.22; (368.15 K) 3.26 ± 0.22.

As to `c1ccccc1` [benzene] + CCCCCCCCCCCCn1cc[n+](C)c1.O=S(=O)([N-]S(=O)(=O)C(F)(F)F)C(F)(F)F, the activity coefficient came to 0.568 ± 0.041 (318.15 K); 0.594 ± 0.042 (328.15 K); 0.619 ± 0.043 (338.15 K); 0.644 ± 0.044 (348.15 K); 0.669 ± 0.045 (358.15 K); 0.694 ± 0.047 (368.15 K).

As for `CCC(C)(C)OC` [2-methoxy-2-methylbutane] + CCCCCCCCCCCCn1cc[n+](C)c1.O=S(=O)([N-]S(=O)(=O)C(F)(F)F)C(F)(F)F, the activity coefficient (318.15 K) worked out at 1.11 ± 0.07; the activity coefficient (328.15 K) was 1.17 ± 0.07; the activity coefficient (338.15 K) came out at 1.23 ± 0.08; the activity coefficient (348.15 K) stood at 1.29 ± 0.08; the activity coefficient (358.15 K) came out at 1.35 ± 0.09; the activity coefficient (368.15 K) stood at 1.4 ± 0.09.

Regarding `C#CCCCCC` [1-heptyne] + CCCCCCCCCCCCn1cc[n+](C)c1.O=S(=O)([N-]S(=O)(=O)C(F)(F)F)C(F)(F)F, the activity coefficient came to 1.47 ± 0.1 (318.15 K); 1.53 ± 0.1 (328.15 K); 1.59 ± 0.11 (338.15 K); 1.65 ± 0.11 (348.15 K); 1.7 ± 0.11 (358.15 K); 1.76 ± 0.12 (368.15 K).

In the case of `CCCCCO` [pentan-1-ol] + CCCCCCCCCCCCn1cc[n+](C)c1.O=S(=O)([N-]S(=O)(=O)C(F)(F)F)C(F)(F)F, the activity coefficient came to 1.52 ± 0.1 (318.15 K); 1.46 ± 0.1 (328.15 K); 1.4 ± 0.09 (338.15 K); 1.35 ± 0.09 (348.15 K); 1.3 ± 0.08 (358.15 K); 1.26 ± 0.08 (368.15 K).

`CCCCCCC` [heptane] + CCCCCCCCCCCCn1cc[n+](C)c1.O=S(=O)([N-]S(=O)(=O)C(F)(F)F)C(F)(F)F: the activity coefficient was 3.55 ± 0.24 (318.15 K); 3.6 ± 0.25 (328.15 K); 3.65 ± 0.25 (338.15 K); 3.7 ± 0.25 (348.15 K); 3.74 ± 0.25 (358.15 K); 3.78 ± 0.26 (368.15 K).

In the case of `CCC[N+](=O)[O-]` [1-nitropropane] + CCCCCCCCCCCCn1cc[n+](C)c1.O=S(=O)([N-]S(=O)(=O)C(F)(F)F)C(F)(F)F, the activity coefficient (318.15 K) was 0.567 ± 0.041; the activity coefficient (328.15 K) came out at 0.582 ± 0.041; the activity coefficient (338.15 K) turned out to be 0.596 ± 0.042; the activity coefficient (348.15 K) worked out at 0.609 ± 0.043; the activity coefficient (358.15 K) was 0.621 ± 0.043; the activity coefficient (368.15 K) was found to be 0.634 ± 0.044.

As for `CCCCCCCCCC` [decane] + CCCCCCCCCCCCn1cc[n+](C)c1.O=S(=O)([N-]S(=O)(=O)C(F)(F)F)C(F)(F)F, the activity coefficient came to 5.82 ± 0.4 (318.15 K); 5.88 ± 0.4 (328.15 K); 5.95 ± 0.41 (338.15 K); 6 ± 0.41 (348.15 K); 6.06 ± 0.41 (358.15 K); 6.12 ± 0.42 (368.15 K).

(Values after the NIST ThermoML archive (doi:10.1016/j.jct.2016.08.008).)
